Measured values from paper doi:10.1101/2024.09.27.615266v1 (biorxiv, 2024).

T1: CYP2A6 (commercial, Vivid kit Baculosomes) (Homo sapiens, UniProt P11509)
T1 sequence (P11509 1-494): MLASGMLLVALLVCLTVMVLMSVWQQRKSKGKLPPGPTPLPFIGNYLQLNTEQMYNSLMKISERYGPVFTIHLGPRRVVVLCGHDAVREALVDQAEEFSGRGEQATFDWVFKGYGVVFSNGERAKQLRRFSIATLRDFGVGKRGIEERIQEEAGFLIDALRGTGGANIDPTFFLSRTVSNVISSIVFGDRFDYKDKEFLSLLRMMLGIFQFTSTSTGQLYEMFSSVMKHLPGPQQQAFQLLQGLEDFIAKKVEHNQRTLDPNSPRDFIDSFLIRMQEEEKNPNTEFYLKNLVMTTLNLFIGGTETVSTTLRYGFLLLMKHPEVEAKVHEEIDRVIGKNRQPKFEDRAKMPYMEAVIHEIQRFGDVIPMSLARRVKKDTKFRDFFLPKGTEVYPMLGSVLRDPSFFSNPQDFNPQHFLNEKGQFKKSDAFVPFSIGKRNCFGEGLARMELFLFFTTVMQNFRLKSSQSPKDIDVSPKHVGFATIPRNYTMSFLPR


Legend:
[1] = target: T1, CYP2A6 (commercial, Vivid kit Baculosomes); experiment: fluorescent 3-cyano coumarin turnover, Morrison tight-binding fit; format: biochemical
purified protein = substrate: N#Cc1cc2ccccc2oc1=O; experiment: purified protein; format: biochemical, Homo sapiens; conditions: 10 nM CYP2A6, 30 μM NADPH, 0.25-32 μM substrate

| Ki [1] | Molecule | Km (purified protein) |
| --- | --- | --- |
| 208 ± 35.4 µM | CCCCCC(O)/C=C/C=O (centres unmarked) [HNE] | – |
| – | CYP2A6 (commercial, Vivid kit Baculosomes) (Homo sapiens) (protein) MLASGMLLVALLVCLTVMVLMSVWQQRKSKGKLPPGPTPLPFIGNYLQLNTEQMYNSLMKISERYGPVFTIHLGPRRVVVLCGHDAVREALVDQAEEFSGRGEQATFDWVFKGYGVVFSNGERAKQLRRFSIATLRDFGVGKRGIEERIQEEAGFLIDALRGTGGANIDPTFFLSRTVSNVISSIVFGDRFDYKDKEFLSLLRMMLGIFQFTSTSTGQLYEMFSSVMKHLPGPQQQAFQLLQGLEDFIAKKVEHNQRTLDPNSPRDFIDSFLIRMQEEEKNPNTEFYLKNLVMTTLNLFIGGTETVSTTLRYGFLLLMKHPEVEAKVHEEIDRVIGKNRQPKFEDRAKMPYMEAVIHEIQRFGDVIPMSLARRVKKDTKFRDFFLPKGTEVYPMLGSVLRDPSFFSNPQDFNPQHFLNEKGQFKKSDAFVPFSIGKRNCFGEGLARMELFLFFTTVMQNFRLKSSQSPKDIDVSPKHVGFATIPRNYTMSFLPR | 12 ± 6 µM |
